# Results as given in publication PMC10330721, “Chemo-enzymatic synthesis and biological activity evaluation of propenylbenzene derivatives” (Frontiers in Microbiology, 2023).
# Legend:
# Caco-2 cells = assay: Resazurin-based viability assay; assay type: cell-based, human; conditions: 24 h, 1, 50 and 200 μg/mL
# Procedure: (§1) The human HepG2 and Caco-2 cell lines were obtained from the American Type Culture Collection (HB-8065™ and HTB-37™) and the MG-63 cell line was obtained from the European Collection of Authenticated Cell Cultures (Merck, Poznań, Poland). HepG2 cells were cultured in Dulbecco’s modified Eagle’s Medium - low glucose (Merck) supplemented with 10% foetal bovine serum (FBS) (Merck). Caco-2 cells were cultured in Dulbecco’s modified Eagle’s medium - high glucose (Merck) supplemented with 10% FBS, 2% HEPES buffer (Thermo Fisher Scientific, Warszawa, Poland), 1% Penicillin–Streptomycin-Amphotericin B Solution (100×, Merck), 1% MEM solution (100×, Thermo Fisher Scientific), and 1% Gentamycin Solution (10 mg/mL, Merck). MG-63 cells were cultured in Minimum Essential Medium (Merck) supplemented with 10% FBS. All cells were cultured in an atmosphere of 5% CO2 at 37°C.
# (§2) HepG2, Caco-2, and […] were seeded in 96-well plates at 20,000 cells per well, and MG-63 cells at 10,000 cells per well, as described previously ([Marycz et al., 2012]; [Kornicka et al., 2017]). The tested compounds were dissolved in ethanol at 10 mg/mL. The concentrations were then adjusted to 1, 50, and 200 μg/mL in culture medium. Four controls were prepared: no ethanol added, and 0.01, 0.5, and 2% EtOH. The cells were treated with the compounds for 24 h. Then, cell viability was evaluated using the resazurin-based assay kit (TOX8), as described previously ([Grzesiak et al., 2011]; [Marycz et al., 2018]). The culture medium was replaced with medium containing 10% resazurin dye. The cells were incubated at 37°C in an atmosphere of 5% CO2 for 2 h. Absorbance levels were measured spectrophotometrically (Epoch) at a wavelengths of 600 nm for resazurin and 690 nm as a reference.
# HepG2 cells = assay: Resazurin-based viability assay; assay type: cell-based, human; conditions: 24 h, 1, 50 and 200 μg/mL
# Procedure: as §1, §2
# [1] = Haemolytic activity assay; assay type: cell-based; conditions: human red blood cells (RBCs) from healthy donors, 37°C, read-out: Percentage of haemolysis
# Procedure: This test is based on comparison of the cytotoxicity of all tested compounds in human red blood cells (RBCs) with that in a control group. RBCs for this method were obtained from a blood center from examined and healthy donors. The compounds were tested at 10, 20, 40, 60, 80, and 100 μM concentrations. The control sample contained only ethanol in the same volume as the test samples. […] The samples were incubated at 37°C for 1 h. Then, the absorbance at 540 nm was measured using a UV–Vis spectrophotometer (Specord 40, Analytik Jena, Jena, Germany). The haemolytic activity of the compounds was determined as the ratio of the absorbance of haemoglobin in the test samples to that in completely haemolyzed cells multiplied by 100%.
# RBCs membrane = assay: Fluorescence spectroscopy of the RBCs membrane (DPH probe anisotropy); assay type: cell-based, human; conditions: for Fluorescence anisotropy of the DPH probe: membranes of RBCs, 37 °C
# Procedure: Using the DPH probe, the anisotropy values of cell membranes of RBCs modified with the test compounds were measured. RBCs for this analysis were prepared according to the method described in subsection 2.5.3. Then, the DPH probe was added to RBCs with a haematocrit of 0.2%. The final concentration of the probe in the sample was 1.3 μM. The mixture was incubated protected from light at 37°C for 30 min. Then, the compounds dissolved in ethanol were added. The compounds were tested at 20, 60, and 100 μM concentrations. Samples with compounds and control samples with alcohol of the appropriate concentration were incubated at 37°C for 1 h. Measurements in triplicate were made in quartz cuvettes using a CARY Eclipse fluorimeter (Varian, San Diego, CA, United States) at 37°C. The excitation wavelength for the DPH probe is λexc = 360 nm and the emission wavelength is λem = 426 nm.
# C. albicans 636/20 = assay: Fungistatic activity assay, broth microdilution; assay type: cell-based; conditions: Candida albicans; C. albicans 636/20, 24 h, 35°C, tested 10–250 μg/mL; read-out: MIC50
# Procedure: (§3) Fungistatic activity was determined using Candida albicans ATCC 90028 from the American Type Culture Collection (ATCC, Manassas, VA, United States), and clinical isolates, C. albicans 636/20, C. albicans 595/20, and C. albicans 38 obtained from Wrocław Medical University, Wrocław, Poland.
# (§4) All compounds were tested for biological activity against C. albicans ATTC 90028, C. albicans 636/20, C. albicans 595/20, and C. albicans 38 using the broth microdilution method. YPD medium (20 g glucose, 20 g Bacto Peptone, 10 g yeast extract, and 1 L of distilled water, pH 6.5) was used for the tests. The compound solutions were prepared in DMSO and diluted in YPD to obtain final concentrations in the range of 10–250 μg/mL. One hundred microlitres of each solution was pipetted into the wells of a 96-well microtiter plate. The inoculum was standardized to 0.5 McFarland standard and then diluted to obtain a final suspension with a cell density of 0.5–2.5 × 10^3 CFU/mL. The inoculum size was 100 μL. The positive control comprised DMSO added in the same concentration as the tested compounds in the inoculum, whereas the negative control consisted of DMSO diluted in the broth without the addition of inoculum. The microtiter plates were incubated in a Biosan PST-60 HL Plate Shaker-Thermostat (Riga, Latvia) at 35°C under shaking at 1,000 rpm for 24 h.
# C. albicans ATTC 90028 = assay: Fungistatic activity assay, broth microdilution; assay type: cell-based; conditions: Candida albicans; C. albicans ATTC90028, 24 h, 35°C, tested 10–250 μg/mL; read-out: MIC50
# Procedure: as §3, §4
# [2] = system: R. erythropolis DSM44534 and R. erythropolis PCM2150; assay: Substrate inhibition in preparative biotransformation; assay type: cell-based, Rhodococcus erythropolis; conditions: preparative scale, high concentration of substrate (0.2 g in 500 mL PCM medium)
# Procedure: (§5) Five hundred millilitres of PCM medium was added into a 2,000-mL Erlenmeyer flask and sterilized at 121°C for 15 min. The medium was inoculated with 5 mL of pre-prepared bacterial cultures at OD600 = 0.3–0.5. The cultures were incubated at 22°C under shaking at 150 rpm for 3 days. Then, 0.2 g of diols 1b–5b dissolved in 5 mL of DMSO was added into the cultures. The samples were extracted after 3, 7, 11 days and evaluated by GC to estimate the progress of the biotransformation.
# Dietzia sp. DSM44016 = assay: Substrate toxicity in preparative biotransformation; assay type: cell-based; conditions: preparative scale, 0.2 g substrate in 500 mL PCM medium
# Procedure: as §5
# C. albicans 595/20 = assay: Fungistatic activity assay, broth microdilution; assay type: cell-based; conditions: Candida albicans; C. albicans 595/20, 24 h, 35°C, tested 10–250 μg/mL; read-out: MIC50
# Procedure: as §3, §4
# [3] = system: human hepatocellular carcinoma HepG2 cells; parameters: method as in Yoo et al., 2005; Song et al., 2014, 2020; conditions: ref Yoo et al., 2005; Song et al., 2014, 2020; cited from earlier work
# [4] = Free-radical scavenging assay (DPPH test); assay type: biochemical; conditions: DPPH 190 μM in methanol, 1 h, 25°C, absorbance 517 nm
# Procedure: The antiradical activity of all compounds was tested using the 2,2-diphenyl-1-picrylhydrazyl (DPPH) test according to a previously described method ([Herald et al., 2012]; [Dudek et al., 2022]). One litre of a fresh solution of 190 μM DPPH in pure methanol was prepared in a dark glass bottle. The solution was kept protected from light and used within a week. The tested compounds and ascorbic acid as a positive control were prepared at concentrations in the range of 5–100 μg/mL. Two hundred microlitres of the test compound dilutions was added to each well of a 96-well microtiter plate. Then, […] of a 190 μM solution of DPPH in methanol was added. DPPH was also added to the negative control, in which 200 μL of methanol was added instead of the test compounds. All samples were tested at least in triplicate. The microtiter plates were incubated in the Biosan PST-60 HL thermoshaker at 25°C under shaking at 1,000 rpm for 1 h. […] EC50 values were calculated using Quest Graph™ EC50 Calculator (AAT Bioquest, Inc.).
# C. albicans strains = assay: Fungistatic activity assay, broth microdilution, values given over several strains; assay type: cell-based, Candida albicans; conditions: Candida albicans; C. albicans 636/20, 595/20, 38 and ATTC90028; read-out: MIC50 (over all tested strains)
# Procedure: as §3, §4
# [5] = system: human osteosarcoma MG63 cell line; parameters: method as in Pandit et al., 2020; conditions: ref Pandit et al., 2020; cited from earlier work
Compound,"hemolysis at 1 h, 10 µM [1] [%]","hemolysis at 1 h, 20 µM [1] [%]","hemolysis at 1 h, 40 µM [1] [%]","hemolysis at 1 h, 60 µM [1] [%]","hemolysis at 1 h, 80 µM [1] [%]","hemolysis at 1 h, 100 µM [1] [%]",Fluorescence anisotropy of the DPH probe (RBCs membrane; 20 µM),Fluorescence anisotropy of the DPH probe (RBCs membrane; 60 µM),Fluorescence anisotropy of the DPH probe (RBCs membrane; 100 µM),other results
"CC(O)C(O)c1ccccc1 (stereo not drawn) [2b, 1-phenylpropane-1,2-diol]",1.04 ± 0.275,1.08 ± 0.107,1 ± 0.295,1.32 ± 0.255,1.79 ± 0.382,1.71 ± 0.054,0.286 ± 0.015,0.277 ± 0.028,0.278 ± 0.011,"Effect on Caco-2 proliferation / viability (in words) (Caco-2 cells): strongest inhibition; Effect on HepG2 proliferation / viability (in words) (HepG2 cells): highest inhibitory effect; Change in DPH anisotropy / RBCs membrane fluidity (in words) (RBCs membrane; RBCs, 20, 60 and 100 μM): increase in anisotropy; MIC50 (C. albicans 636/20): 121 µg/mL; MIC50 (C. albicans ATTC 90028): 125 µg/mL; Inhibitory effect of substrate on the strains (in words) [2]: inhibitory effect; Toxicity of substrate to the strain (in words) (Dietzia sp. DSM44016): toxic"
"C/C=C/c1ccc(OC)cc1 [3a, anethole]",1.36 ± 0.296,1.14 ± 0.159,2.23 ± 0.13,2.54 ± 0.267,2.2 ± 0.108,2.5 ± 0.39,0.263 ± 0.005,0.261 ± 0.009,0.259 ± 0.008,MIC50 (C. albicans 595/20): 62 µg/mL; Effect on growth of HepG2 cells (in words) [3]: inhibited the growth; EC50 antiradical activity [4]: 19.13 µg/mL; MIC50 (C. albicans strains): 62 to 100 µg/mL; Proliferation and apoptosis in MG63 cell line (in words) [5]: caused abrogation in proliferation and induces apoptosis
